Laboratory results: ChEMBL document CHEMBL5360657, “Discovery of the TLR7/8 Antagonist MHV370 for Treatment of Systemic Autoimmune Diseases” (ACS Med Chem Lett, 2023)

Key:
[1] = Metabolic stability in human liver microsomes assessed as intrinsic clearance; type: ADME, Microsome; details: read-out: CLH
[2] = target: Voltage-gated inwardly rectifying potassium channel KCNH2 (Homo sapiens, UniProt Q12809); assay: Displacement of [3H]-dofetilite from human ERG (unknown origin); type: toxicity
Cytochrome P450 3A4 [3] = target: T1, Cytochrome P450 3A4 (Homo sapiens, UniProt P08684); assay: Inhibition of CYP3A4 (unknown origin); type: ADME
T1 sequence (P08684 whole entry): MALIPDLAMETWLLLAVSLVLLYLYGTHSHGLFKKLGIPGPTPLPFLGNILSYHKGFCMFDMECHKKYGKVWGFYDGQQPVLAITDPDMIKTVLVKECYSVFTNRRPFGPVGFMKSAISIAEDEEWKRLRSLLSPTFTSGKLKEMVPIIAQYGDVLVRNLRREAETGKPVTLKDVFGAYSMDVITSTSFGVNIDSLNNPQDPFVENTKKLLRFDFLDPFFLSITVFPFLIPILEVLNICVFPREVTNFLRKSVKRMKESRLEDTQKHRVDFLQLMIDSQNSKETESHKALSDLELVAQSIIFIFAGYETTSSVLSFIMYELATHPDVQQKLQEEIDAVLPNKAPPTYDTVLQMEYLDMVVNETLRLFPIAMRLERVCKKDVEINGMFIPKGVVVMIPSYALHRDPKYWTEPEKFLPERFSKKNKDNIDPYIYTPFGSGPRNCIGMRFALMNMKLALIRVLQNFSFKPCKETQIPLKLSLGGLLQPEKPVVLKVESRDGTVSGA

[4] = Metabolic stability in mouse liver microsomes assessed as intrinsic clearance; type: ADME, Microsome; details: read-out: CLH
[5] = Metabolic stability in rat liver microsomes assessed as intrinsic clearance; type: ADME, Microsome; details: read-out: CLH
Toll-like receptor 8 = target: T2, Toll-like receptor 8 (Homo sapiens, UniProt Q9NR97); assay: Antagonist activity at TLR8 in human PBMC cells […] assessed as reduction in IL-6 level measured after 20 hrs by AlphaLISA assay; type: cell-based
T2 sequence (Q9NR97 whole entry): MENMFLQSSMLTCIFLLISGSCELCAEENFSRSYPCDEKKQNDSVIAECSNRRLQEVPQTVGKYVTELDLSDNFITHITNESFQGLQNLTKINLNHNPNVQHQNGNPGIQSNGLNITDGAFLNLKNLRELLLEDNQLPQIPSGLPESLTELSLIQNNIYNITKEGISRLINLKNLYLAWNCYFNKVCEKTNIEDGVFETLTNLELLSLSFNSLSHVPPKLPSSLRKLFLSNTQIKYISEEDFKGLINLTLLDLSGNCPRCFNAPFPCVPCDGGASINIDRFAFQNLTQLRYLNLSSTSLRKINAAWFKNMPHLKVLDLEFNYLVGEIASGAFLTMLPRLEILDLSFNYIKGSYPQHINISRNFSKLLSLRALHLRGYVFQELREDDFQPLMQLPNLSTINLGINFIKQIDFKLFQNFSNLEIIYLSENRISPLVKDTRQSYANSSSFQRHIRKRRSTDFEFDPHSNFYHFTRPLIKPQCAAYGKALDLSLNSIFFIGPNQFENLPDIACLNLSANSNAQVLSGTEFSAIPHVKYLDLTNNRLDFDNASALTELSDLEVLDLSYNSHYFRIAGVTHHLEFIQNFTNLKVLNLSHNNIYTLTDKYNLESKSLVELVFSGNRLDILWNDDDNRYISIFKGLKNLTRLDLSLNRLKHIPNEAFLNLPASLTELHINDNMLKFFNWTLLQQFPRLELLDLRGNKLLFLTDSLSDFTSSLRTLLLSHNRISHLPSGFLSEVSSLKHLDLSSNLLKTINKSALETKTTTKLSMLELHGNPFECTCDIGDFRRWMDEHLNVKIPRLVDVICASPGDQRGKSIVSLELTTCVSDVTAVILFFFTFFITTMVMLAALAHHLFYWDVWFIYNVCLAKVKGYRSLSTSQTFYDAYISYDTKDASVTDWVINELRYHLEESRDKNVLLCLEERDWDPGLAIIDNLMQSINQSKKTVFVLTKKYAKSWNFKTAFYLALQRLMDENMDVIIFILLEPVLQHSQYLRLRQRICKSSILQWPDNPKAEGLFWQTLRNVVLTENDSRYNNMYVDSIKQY

[6] = AUC in rat at 1 mg/ml, po; type: ADME; design: dose 1 mg/ml, route po; details: in vivo
Toll-like receptor 9 = target: T3, Toll-like receptor 9 (Homo sapiens, UniProt Q9NR96); assay: Antagonist activity at TLR9 in human PBMC cells assessed as reduction in IFN alpha measured after 20 hrs by AlphaLISA assay; type: cell-based
T3 sequence (Q9NR96 whole entry): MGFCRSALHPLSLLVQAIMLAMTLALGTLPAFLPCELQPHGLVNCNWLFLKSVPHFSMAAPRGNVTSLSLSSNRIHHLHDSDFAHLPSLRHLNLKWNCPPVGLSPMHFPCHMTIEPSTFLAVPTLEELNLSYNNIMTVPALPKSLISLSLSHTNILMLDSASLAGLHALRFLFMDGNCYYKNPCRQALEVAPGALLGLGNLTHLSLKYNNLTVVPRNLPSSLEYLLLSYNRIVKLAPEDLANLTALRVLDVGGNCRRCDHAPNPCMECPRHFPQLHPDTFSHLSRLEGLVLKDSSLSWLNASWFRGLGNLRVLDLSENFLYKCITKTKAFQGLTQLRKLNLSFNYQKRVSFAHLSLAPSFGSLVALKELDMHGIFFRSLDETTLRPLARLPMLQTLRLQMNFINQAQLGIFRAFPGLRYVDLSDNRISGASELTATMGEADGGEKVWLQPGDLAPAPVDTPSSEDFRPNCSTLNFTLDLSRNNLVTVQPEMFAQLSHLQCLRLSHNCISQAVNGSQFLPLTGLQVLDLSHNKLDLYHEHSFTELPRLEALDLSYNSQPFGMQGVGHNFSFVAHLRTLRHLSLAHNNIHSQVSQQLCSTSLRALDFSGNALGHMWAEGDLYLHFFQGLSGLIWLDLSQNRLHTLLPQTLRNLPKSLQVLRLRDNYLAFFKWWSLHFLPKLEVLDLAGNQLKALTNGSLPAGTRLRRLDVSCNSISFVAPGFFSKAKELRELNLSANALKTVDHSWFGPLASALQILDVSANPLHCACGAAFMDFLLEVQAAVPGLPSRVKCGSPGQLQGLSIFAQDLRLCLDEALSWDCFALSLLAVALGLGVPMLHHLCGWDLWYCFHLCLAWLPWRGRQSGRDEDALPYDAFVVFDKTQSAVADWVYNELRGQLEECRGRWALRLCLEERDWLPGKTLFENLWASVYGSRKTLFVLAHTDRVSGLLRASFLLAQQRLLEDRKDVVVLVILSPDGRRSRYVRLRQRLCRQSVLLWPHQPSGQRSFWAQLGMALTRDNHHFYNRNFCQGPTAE

Cytochrome P450 3A4 [7] = target: T1, Cytochrome P450 3A4; assay: Time dependent inhibition of CYP3A4 (unknown origin) assessed as Kobs; type: ADME
[8] = Permeability of the compound by PAMPA; type: ADME

Chain of Voltage-gated inwardly rectifying potassium channel KCNH2 (Q12809 whole entry): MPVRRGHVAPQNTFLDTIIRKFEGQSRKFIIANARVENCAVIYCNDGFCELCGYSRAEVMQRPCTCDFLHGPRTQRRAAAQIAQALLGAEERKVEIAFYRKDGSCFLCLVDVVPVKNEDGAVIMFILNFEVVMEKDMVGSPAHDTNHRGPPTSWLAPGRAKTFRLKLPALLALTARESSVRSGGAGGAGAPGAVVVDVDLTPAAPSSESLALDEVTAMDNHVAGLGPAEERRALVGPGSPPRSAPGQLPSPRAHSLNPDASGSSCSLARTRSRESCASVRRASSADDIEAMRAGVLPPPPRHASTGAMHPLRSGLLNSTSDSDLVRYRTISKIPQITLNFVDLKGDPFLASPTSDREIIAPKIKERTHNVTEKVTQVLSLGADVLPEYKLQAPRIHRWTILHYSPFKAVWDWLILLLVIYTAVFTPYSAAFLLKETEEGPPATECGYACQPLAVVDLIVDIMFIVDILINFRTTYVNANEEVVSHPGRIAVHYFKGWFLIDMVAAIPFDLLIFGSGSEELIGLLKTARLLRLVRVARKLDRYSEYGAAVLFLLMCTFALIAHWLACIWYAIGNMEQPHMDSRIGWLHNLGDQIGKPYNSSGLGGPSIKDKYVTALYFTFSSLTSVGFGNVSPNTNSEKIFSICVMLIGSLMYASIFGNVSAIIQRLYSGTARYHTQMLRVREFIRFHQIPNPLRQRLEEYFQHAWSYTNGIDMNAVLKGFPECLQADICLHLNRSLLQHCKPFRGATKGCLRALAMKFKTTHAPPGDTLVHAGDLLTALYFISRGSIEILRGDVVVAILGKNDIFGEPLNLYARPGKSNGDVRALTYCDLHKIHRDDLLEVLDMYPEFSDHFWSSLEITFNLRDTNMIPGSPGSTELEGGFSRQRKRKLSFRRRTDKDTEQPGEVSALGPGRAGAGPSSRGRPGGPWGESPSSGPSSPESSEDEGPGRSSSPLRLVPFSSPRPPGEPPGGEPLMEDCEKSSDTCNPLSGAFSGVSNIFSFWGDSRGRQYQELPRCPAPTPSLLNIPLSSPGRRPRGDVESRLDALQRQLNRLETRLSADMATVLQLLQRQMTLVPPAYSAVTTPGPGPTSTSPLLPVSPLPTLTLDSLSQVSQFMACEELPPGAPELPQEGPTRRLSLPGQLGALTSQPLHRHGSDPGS

microsomal CLint [1] [µL/min/mg] | IC50 (Cytochrome P450 3A4 [3]) [nM] | microsomal CLint [4] [µL/min/mg] | microsomal CLint [5] [µL/min/mg] | IC50 (Toll-like receptor 8) [nM] | IC50 (Toll-like receptor 9) [nM] | Kobs (Cytochrome P450 3A4 [7]) [min⁻¹] | log(permeability) [8] | Compound | IC50 [2] [nM] | AUC [6] [µM·h]
35 | > 50000 | 96 | < 15 | 44 | 810 | 0.01 | -5.3 | CCNCC(=O)NC12CCC(Cn3nc(C)c4c3CCN(c3cc(C)nc5c3cnn5C)C4)(CC1)CC2 | > 30000 | 0.618
19 | > 50000 | 15 | 36 | 210 | 580 | 0.002 | -5.1 | Cc1cc(N2CCc3c(c(C)nn3CC34CCC(N)(CC3)CC4)C2)c2cnn(C)c2n1 | 29000 | –

Compound | microsomal CLint [1] [µL/min/mg] | IC50 (Cytochrome P450 3A4 [3]) [nM] | microsomal CLint [4] [µL/min/mg] | microsomal CLint [5] [µL/min/mg] | IC50 (Toll-like receptor 8) [nM] | IC50 (Toll-like receptor 9) [nM] | Kobs (Cytochrome P450 3A4 [7]) [min⁻¹] | log(permeability) [8] | IC50 [2] [nM] | AUC [6] [µM·h]
Cc1cc(N2CCc3c(c(C)nn3CC34CCC(NC(=O)[C@@H]5COCCN5)(CC3)CC4)C2)c2cnn(C)c2n1 [MHV-370] | 19 | > 50000 | 52 | 17 | 68 | 1000 | 0.006 | -5.2 | > 30000 | 2.82
